Experimental data: patent US9328099B2, “Cyanomethylpyrazole carboxamides as janus kinase inhibitors” (Merck Sharp & Dohme Corp., priority 2011, dated 2016)

What was measured:
[1] = target: JAK1 (Homo sapiens (Human), UniProt P23458); assay: Jak Biochemical HTRF Assay, JAK1; conditions: HTRF biochemical assay, GST-tagged catalytic domain; top concentration tested […]; read-out: JAK1 IC50
Source text: (§1) Jak Biochemical HTRF Assay Protocol
(§2) Subsequent reagent additions employed an Agilent Bravo.

[2] = target: JAK2 (Homo sapiens (Human), UniProt O60674); assay: Jak Biochemical HTRF Assay, JAK2; conditions: HTRF biochemical assay, GST-tagged catalytic domain; top concentration tested […]
Sequence of JAK2 (O60674 849-1124): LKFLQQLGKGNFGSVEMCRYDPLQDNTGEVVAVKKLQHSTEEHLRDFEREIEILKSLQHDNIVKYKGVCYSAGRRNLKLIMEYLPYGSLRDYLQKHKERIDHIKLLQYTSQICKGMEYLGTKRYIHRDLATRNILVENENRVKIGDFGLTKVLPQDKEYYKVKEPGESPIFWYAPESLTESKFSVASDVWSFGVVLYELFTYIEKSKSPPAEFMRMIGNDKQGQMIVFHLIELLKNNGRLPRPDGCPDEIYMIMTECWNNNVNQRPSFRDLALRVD
Source text: as §1, §2

Sequence of JAK1 (P23458 875-1153): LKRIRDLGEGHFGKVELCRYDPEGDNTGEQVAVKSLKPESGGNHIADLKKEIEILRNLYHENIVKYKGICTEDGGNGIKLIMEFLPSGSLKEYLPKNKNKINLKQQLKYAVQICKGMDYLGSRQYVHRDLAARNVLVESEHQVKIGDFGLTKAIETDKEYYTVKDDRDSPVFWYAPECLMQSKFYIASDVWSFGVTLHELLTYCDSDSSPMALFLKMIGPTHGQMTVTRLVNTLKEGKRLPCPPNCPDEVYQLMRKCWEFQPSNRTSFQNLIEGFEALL

IC50 [1] | IC50 [2] | Structure (SMILES)
120 nM | 1050 nM | CC(C)c1ccc(CN2CCC(CC#N)(n3cc(C(N)=O)c(Nc4ccccc4)n3)CC2)cc1 [Example 21-24, 1-{4-(cyanomethyl)-1-[4-(1-methylethyl)benzyl]piperidin-4-yl}-3-(phenylamino)-1H-pyrazole-4-carboxamide]
83 nM | 747 nM | N#CCC1(n2cc(C(N)=O)c(Nc3ccccc3)n2)CCN(CC#Cc2ccccc2)CC1 [Example 21-25, 1-[4-(cyanomethyl)-1-(3-phenylprop-2-yn-1-yl)piperidin-4-yl]-3-(phenylamino)-1H-pyrazole-4-carboxamide]
0.7 nM | 11 nM | N#CCC1(n2cc(C(N)=O)c(Nc3ccccc3)n2)CCN(Cc2c(F)ccc(F)c2F)CC1 [Example 21-26, 1-[4-(cyanomethyl)-1-(2,3,6-trifluorobenzyl)piperidin-4-yl]-3-(phenylamino)-1H-pyrazole-4-carboxamide]
36 nM | 809 nM | CC(C)Oc1ccc(CN2CCC(CC#N)(n3cc(C(N)=O)c(Nc4ccccc4)n3)CC2)cc1 [Example 21-27, 1-{4-(cyanomethyl)-1-[4-(1-methylethoxy)benzyl]piperidin-4-yl}-3-(phenylamino)-1H-pyrazole-4-carboxamide]
39 nM | 453 nM | Cc1ccc(CN2CCC(CC#N)(n3cc(C(N)=O)c(Nc4ccccc4)n3)CC2)cc1C [Example 21-28, 1-[4-(cyanomethyl)-1-(3,4-dimethylbenzyl)piperidin-4-yl]-3-(phenylamino)-1H-pyrazole-4-carboxamide]
21 nM | 400 nM | COC(=O)c1ccccc1CN1CCC(CC#N)(n2cc(C(N)=O)c(Nc3ccccc3)n2)CC1 [Example 21-29, methyl 2-({4-[4-carbamoyl-3-(phenylamino)-1H-pyrazol-1-yl]-4-(cyanomethyl)piperidin-1-yl}methyl)benzoate]
30 nM | 447 nM | CCn1ccnc1CN1CCC(CC#N)(n2cc(C(N)=O)c(Nc3ccnc(F)c3)n2)CC1 [Example 22-1, 1-(4-(Cyanomethyl)-1-((1-ethyl-1H-imidazol-2-yl)methyl)piperidin-4-yl)-3-((2-fluoropyridin-4-yl)amino)-1H-pyrazole-4-carboxamide]
0.2 nM | 5 nM | N#CCC1(n2cc(C(N)=O)c(Nc3ccnc(F)c3)n2)CCN(Cc2cccnc2)CC1 [Example 22-2, 1-[4-(cyanomethyl)-1-(pyridin-3-ylmethyl)piperidin-4-yl]-3-[(2-fluoropyridin-4-yl)amino]-1H-pyrazole-4-carboxamide]
1 nM | 57 nM | N#CCC1(n2cc(C(N)=O)c(Nc3ccnc(F)c3)n2)CCN(CC2CCCCC2)CC1 [Example 22-3, 1-[4-(cyanomethyl)-1-(cyclohexylmethyl)piperidin-4-yl]-3-[(2-fluoropyridin-4-yl)amino]-1H-pyrazole-4-carboxamide]
74 nM | 1180 nM | Cc1c[nH]c(CN2CCC(CC#N)(n3cc(C(N)=O)c(Nc4ccnc(F)c4)n3)CC2)n1 [Example 22-4, 1-{4-(cyanomethyl)-1-[(4-methyl-1H-imidazol-2-yl)methyl]piperidin-4-yl}-3-[(2-fluoropyridin-4-yl)amino]-1H-pyrazole-4-carboxamide]
6 nM | 70 nM | N#CCC1(n2cc(C(N)=O)c(Nc3ccnc(F)c3)n2)CCN(Cc2cn[nH]c2)CC1 [Example 22-5, 1-[4-(cyanomethyl)-1-(1H-pyrazol-4-ylmethyl)piperidin-4-yl]-3-[(2-fluoropyridin-4-yl)amino]-1H-pyrazole-4-carboxamide]
6 nM | 211 nM | N#CCC1(n2cc(C(N)=O)c(Nc3ccc(F)cc3)n2)CCN(CC2CCCCC2)CC1 [Example 22-6, 1-[4-(cyanomethyl)-1-(cyclohexylmethyl)piperidin-4-yl]-3-[(4-fluorophenyl)amino]-1H-pyrazole-4-carboxamide]
0.3 nM | 13 nM | N#CCC1(n2cc(C(N)=O)c(Nc3ccc(F)cc3)n2)CCN(Cc2ccccc2)CC1 [Example 22-7, 1-[1-benzyl-4-(cyanomethyl)piperidin-4-yl]-3-[(4-fluorophenyl)amino]-1H-pyrazole-4-carboxamide]
0.1 nM | 6 nM | N#CCC1(n2cc(C(N)=O)c(Nc3ccnc(F)c3)n2)CCN(Cc2ccccc2)CC1 [Example 22-8, 1-[1-benzyl-4-(cyanomethyl)piperidin-4-yl]-3-[(2-fluoropyridin-4-yl)amino]-1H-pyrazole-4-carboxamide]
0.06 nM | 2 nM | N#CCC1(n2cc(C(N)=O)c(Nc3ccnc(F)c3)n2)CCN(Cc2ccccc2F)CC1 [Example 22-9, 1-[4-(cyanomethyl)-1-(2-fluorobenzyl)piperidin-4-yl]-3-[(2-fluoropyridin-4-yl)amino]-1H-pyrazole-4-carboxamide]
0.07 nM | 3 nM | N#CCC1(n2cc(C(N)=O)c(Nc3ccnc(F)c3)n2)CCN(Cc2cccc(F)c2)CC1 [Example 22-10, 1-[4-(cyanomethyl)-1-(3-fluorobenzyl)piperidin-4-yl]-3-[(2-fluoropyridin-4-yl)amino]-1H-pyrazole-4-carboxamide]
0.1 nM | 4 nM | N#CCC1(n2cc(C(N)=O)c(Nc3ccnc(F)c3)n2)CCN(Cc2ccc(F)cc2)CC1 [Example 22-11, 1-[4-(cyanomethyl)-1-(4-fluorobenzyl)piperidin-4-yl]-3-[(2-fluoropyridin-4-yl)amino]-1H-pyrazole-4-carboxamide]
124 nM | > 1500 nM | N#CCC1(n2cc(C(N)=O)c(Nc3ccnc(F)c3)n2)CCN(Cc2cn3ccccc3n2)CC1 [Example 22-12, 1-[4-(cyanomethyl)-1-(imidazo[1,2-a]pyridin-2-ylmethyl)piperidin-4-yl]-3-[(2-fluoropyridin-4-yl)amino]-1H-pyrazole-4-carboxamide]
3 nM | 39 nM | N#CCC1(n2cc(C(N)=O)c(Nc3ccnc(F)c3)n2)CCN(Cc2ccn[nH]2)CC1 [Example 22-13, 1-[4-(cyanomethyl)-1-(1H-pyrazol-5-ylmethyl)piperidin-4-yl]-3-[(2-fluoropyridin-4-yl)amino]-1H-pyrazole-4-carboxamide]
0.6 nM | 28 nM | N#CCC1(n2cc(C(N)=O)c(Nc3ccnc(F)c3)n2)CCN(Cc2cnccn2)CC1 [Example 22-14, 1-[4-(cyanomethyl)-1-(pyrazin-2-ylmethyl)piperidin-4-yl]-3-[(2-fluoropyridin-4-yl)amino]-1H-pyrazole-4-carboxamide]
1 nM | 18 nM | Cc1ncc(CN2CCC(CC#N)(n3cc(C(N)=O)c(Nc4ccnc(F)c4)n3)CC2)s1 [Example 22-15, 1-{4-(cyanomethyl)-1-[(2-methyl-1,3-thiazol-5-yl)methyl]piperidin-4-yl}-3-[(2-fluoropyridin-4-yl)amino]-1H-pyrazole-4-carboxamide]
5 nM | 122 nM | CC1(C)CC(CN2CCC(CC#N)(n3cc(C(N)=O)c(Nc4ccnc(F)c4)n3)CC2)CCO1 (stereo not drawn) [Example 22-16, 1-{4-(cyanomethyl)-1-[(2,2-dimethyltetrahydro-2H-pyran-4-yl)methyl]piperidin-4-yl}-3-[(2-fluoropyridin-4-yl)amino]-1H-pyrazole-4-carboxamide]
17 nM | 503 nM | N#CCC1(n2cc(C(N)=O)c(Nc3ccnc(F)c3)n2)CCN(Cc2cnn3ccccc23)CC1 [Example 22-17]
2 nM | 72 nM | N#CCC1(n2cc(C(N)=O)c(Nc3ccnc(F)c3)n2)CCN(Cc2ccnc3[nH]ccc23)CC1 [Example 22-18, 1-[4-(cyanomethyl)-1-(1H-pyrrolo[2,3-b]pyridin-4-ylmethyl)piperidin-4-yl]-3-[(2-fluoropyridin-4-yl)amino]-1H-pyrazole-4-carboxamide]
0.7 nM | 25 nM | N#CCC1(n2cc(C(N)=O)c(Nc3ccnc(F)c3)n2)CCN(Cc2ccco2)CC1 [Example 22-19, 1-[4-(cyanomethyl)-1-(furan-2-ylmethyl)piperidin-4-yl]-3-[(2-fluoropyridin-4-yl)amino]-1H-pyrazole-4-carboxamide]
2 nM | 31 nM | N#CCC1(n2cc(C(N)=O)c(Nc3ccnc(F)c3)n2)CCN(Cc2ccc3[nH]ccc3c2)CC1 [Example 22-20, 1-[4-(cyanomethyl)-1-(1H-indol-5-ylmethyl)piperidin-4-yl]-3-[(2-fluoropyridin-4-yl)amino]-1H-pyrazole-4-carboxamide]
0.7 nM | 41 nM | N#CCC1(n2cc(C(N)=O)c(Nc3ccnc(F)c3)n2)CCN(Cc2cccc3cc[nH]c23)CC1 [Example 22-21, 1-[4-(cyanomethyl)-1-(1H-indol-7-ylmethyl)piperidin-4-yl]-3-[(2-fluoropyridin-4-yl)amino]-1H-pyrazole-4-carboxamide]
0.4 nM | 13 nM | Cc1cnc(F)c(CN2CCC(CC#N)(n3cc(C(N)=O)c(Nc4ccnc(F)c4)n3)CC2)c1 [Example 22-22, 1-{4-(cyanomethyl)-1-[(2-fluoro-5-methylpyridin-3-yl)methyl]piperidin-4-yl}-3-[(2-fluoropyridin-4-yl)amino]-1H-pyrazole-4-carboxamide]
0.1 nM | 6 nM | N#CCC1(n2cc(C(N)=O)c(Nc3ccnc(F)c3)n2)CCN(Cc2cccnc2F)CC1 [Example 22-23, 1-{4-(cyanomethyl)-1-[(2-fluoropyridin-3-yl)methyl]piperidin-4-yl}-3-[(2-fluoropyridin-4-yl)amino]-1H-pyrazole-4-carboxamide]
100 nM | > 1500 nM | CC(C)(O)C1CC(CN2CCC(CC#N)(n3cc(C(N)=O)c(Nc4ccnc(F)c4)n3)CC2)C1 (stereo not drawn) [Example 22-24, 1-[4-(cyanomethyl)-1-{[3-(1-hydroxy-1-methylethyl)cyclobutyl]methyl}piperidin-4-yl]-3-[(2-fluoropyridin-4-yl)amino]-1H-pyrazole-4-carboxamide]
